{
  "source": "patent US12104173B2",
  "about": "“Method for differentiation of human pluripotent stem cell lines in suspension culture” (AGENCY FOR SCIENCE, TECHNOLOGY AND RESEARCH, priority 2018, dated 2024)",
  "type_in_all_cases": "cell-based, human",
  "key": {"[1]": {"test_system": "X13 induced pluripotent stem cells (iPSCs) on microcarriers", "assay": "screening of Wnt pathway activators: mesoderm induction (T-bra, KDR+PDGFRα−) by flow cytometry", "conditions": "at 72 hours, compared to other Wnt pathway modulators", "procedure": "(A) is a column graph showing two different concentrations of seven Wnt pathway activators (BIO, SB-216763, CHIR98014, Inhibitor VIII, Kenpaullone, DRF053 dihydrochloride and Wnt3a). which were selected from literature reviews and screened with CHIR99021 as a control for the disclosed hematopoietic differentiation protocol. The viability of the X13 induced pluripotent stem cells (iPSCs) on microcarriers were tabulated accordingly 24 hours post treatment of the various Wnt pathway modulators. […] (B) is a column graph showing the percentage of mesogerm induction.\nHuman induced pluripotent stem cell-microcarrier (hiPSC-MC) aggregates (1×10^6 cells/ml, or 1e6 cells/nil) were transferred to mesoderm induction medium (cytokines all from Stemcell Technologies) plus Stemline II Hematopoietic Stem Cell Expansion medium (SL2) in either 6-well ultra-low attachment plates (5 ml) under continuous agitation at 75 rpm or 125 ml spinner flasks (50 ml) under continuous agitation at 36 rpm. Daily medium changes as indicated: Day 0: SL2+30 ng/ml BMP4+50 ng/ml VEGF-165+40 ng/ml Activin A+12-15 μM CHIR-99021; Day 1: SL2+30 ng/ml BMP4+50 ng/ml VEGF-165+40 ng/ml Activin A; Day 2: SL2+20 ng/ml BMP4+30 ng/ml VEGF165+5 ng/ml Activin A+10 ng/ml bFGF+20 ng/ml SCF+0.4 ng/ml β-estradiol. Samples were collected on day 1 and day 3 for flow cytometry analysis of T-brachyury (T-Bra) and KDR/PDGFRα cells, respectively."}, "[2]": {"test_system": "O-neg hiPSC line (D5) expanded in agitated microcarrier cultures", "assay": "DoE multifactorial analysis of KDR+ cells, O-neg hiPSC", "conditions": "CHIR exposure for 24 hours, 4 days post differentiation", "source_text": "(B) Plot of KDR levels (%) for respective conditions tested (day 4 post differentiation). Conditions 27, 28 and 29 are triplicates of the same condition tested. […] Act=Activin A; CHI=CHIR-99021 for 24 hr, CH2=CHIR-99021 from 24-48 hr; BMP=BMP4. Computed P-values are indicated below the chart.\nThese findings were also confirmed using an O-neg hiPSC line (D5) expanded in agitated microcarrier cultures (FIG. 6). […] In summary, from the Design of experiment analysis, it was established that a BMP4 dose of 10 to 50 ng/ml, Activin A dose of 25 to 50 ng/ml and exposure of CHIR for 24 hours at a dose of 6 to 12 μM would be efficient for the generation of KDR+ cells.\nDesign of experiments (DoE) using a resolution IV Fractional Factorial Design was performed using the MODDE software (Sartorius Stedim Biotech, Germany) to evaluate initial BMP4, Activin A and CHIR-99021, doses and duration of exposure for their effects on the following response factors: induction of KDR+ cells 4 days post mesoderm induction or total hematopoietic precursors generated 2 weeks post differentiation. […]"}, "IMR90 hiPSC line": {"test_system": "IMR90 hiPSC line", "assay": "CHIR dose: hematopoietic/erythroid differentiation of agitated hPSC-MC aggregates", "conditions": "optimal dose of CHIR-99021, day 4"}},
  "data": [
    {"smiles": "Cc1c[nH]c(-c2cnc(NCCNc3ccc(C#N)cn3)nc2-c2ccc(Cl)cc2Cl)n1", "note": "[CHIR-99021, 6-[[2-[[4-(2,4-Dichlorophenyl)-5-(5-methyl-1H-imidazol-2-yl)-2-pyrimidinyl]amino]ethyl]amino]-3-pyridinecarbonitrile]", "values": [
      {"measurement": "KDR+PDGFRα− population", "setting": "[1]", "result": "significantly highest"},
      {"measurement": "effect of factor on KDR+ cells (DoE)", "setting": "[2]", "result": "significant factors for increased KDR+ cells"},
      {"measurement": "Mesoderm induction % KDR+ PDGFRα−", "setting": "IMR90 hiPSC line", "result": 14.2, "unit": "%"}
    ]}
  ]
}
